According to US10780094B2, “Use of carbonic anhydrase inhibitors for treatment of neurological and psychiatric disorders” (New York University, priority 2016, dated 2020):

Key:
TgSwDI mice = assay: Contextual fear conditioning; format: in vivo, mouse; details: short-term treatment (3 months)
[1] = system: D3 cerebral microvascular endothelial cells; assay: TMRM assay of mitochondrial membrane potential (ΔΨ); format: cell-based, human; details: for ΔΨ after pre-aggregated Aβ: any of the used concentrations, 45 minutes
Protocol: (§1) Briefly, cells were plated on 25 mm optical borosilicate poly-L-lysine-coated sterile glass covers (ThermoFisher, Waltham, Mass., US) at a 70% confluence. The day after, cells were washed twice with HBSS and charged with 600 nM TMRM on HBSS. Cells were then incubated for 20 min in the incubator, at 37° C. and washed again with HBSS. After that, the medium was replaced by HBSS containing 150 nM of tetramethylrhodamine methyl ester (TMRM), in order to maintain the equilibrium distribution of the fluorophore. Cells were then mounted on Sykes-Moores chambers (BellCo, Vineland, N.J., US) and treated with the different drugs and/or peptides. An image was taken at minute 0 and at minute 45, after adding the drugs and/or peptides. In this experiment, the peptide was pre-aggregated as above before adding it to the cells.

SH-SY5Y neuronal cells = assay: as above; format: cell-based, human; details: for ΔΨ after pre-aggregated Aβ: any of the used concentrations, 45 minutes
Protocol: as §1

mitochondrial CA = details: reference (16); cited from earlier work
[2] = system: mitochondria isolated from SH-SY5Y neuronal cells; assay: Mitochondrial H2O2 production (Amplex Red) after Aβ challenge; format: cell-based, human; details: for Aβ-induced H2O2 production: Example 2, both drugs at the proposed concentrations
Protocol: Production of H2O2 from isolated mitochondria was measured using Amplex Red Hydrogen Peroxide/Peroxidase Assay (Life Technologies). Cells were treated with Aβ peptides, in the presence or absence of MTZ. After 16 hours of treatment, the mitochondrial fraction was separated from nuclear and cytoplasmic fractions as previously described (Fossati et al., 2013). Protein concentration in the mitochondrial fraction was measured by BCA assay (Thermo Scientific, Rockford, Ill.), in order to include the same amount of mitochondria in each sample. Functional mitochondrial fractions were distributed in a 96 well plate with Reaction Buffer and Amplex Red solution following the manufacturer's specifications. The plate was incubated in the dark at room temperature for 30 minutes before colorimetric evaluation of the Amplex Red reaction at 560 nm.
Cells were plated on 6-wells plates and treated with the peptides and/or drugs for the experimental times. Plates were centrifuged for 10 min at 1.000 RPM and washed twice with PBS 1×. After that, 500 μL of homogenization buffer (75 mM sucrose, 225 mM mannitol, 5 mM Tris-HCl pH=7.4, 1 mM PMSF and protease inhibitor cocktail) was added. Cells were scraped in this buffer, collected in glass tubes and grinded exactly 80 times with a pellet pestle, keeping everything always on ice. Cells were then centrifuged at 2.800 RPM for 5 min at 4° C. The supernatant was collected and centrifuged again at 2.800 RPM for 5 min at 4° C. The supernatant was again collected and centrifuged at 10.500 RPM for another 5 min at 4° C. After this, the supernatant was discarded and the pellet was re-suspended in 100 μL of homogenization buffer. The samples were centrifuged again at 10.500 RPM for 10 min at 4° C., the supernatant was discarded and the pellets (mitochondrial fractions) were re-suspended on 50 μL of homogenization buffer. A protein concentration assay on mitochondrial protein was performed, using the Pierce BCA Protein Assay Kit (ThermoFisher, Waltham, Mass., US) and following the instructions provided by the manufacturer. After that, mitochondrial fractions containing equal amounts of mitochondrial proteins were placed on 96-wells microplate absorbance microtiter (ThermoFisher, Waltham, Mass., US) and the AmplexRed assay was ran, following the instructions provided by the manufacturer. Absorbance was measured by using a FlexStation (Molecular Devices, Sunnyvalem Calif., US).

hCMEC/D3 cells (D3) = assay: Cell Death ELISAplus, Aβ-induced apoptosis; format: cell-based, human; details: Example 2/3; Aβ40-Q22 challenge; FIG. 17B, 21
Protocol: 20.000 cells per well were plated on 24-wells plates. The day after, cells were treated with peptides and/or drugs, following the experimental conditions.
20,000 cells per well were plated on 24-wells plates. The day after, cells were treated with peptides and/or drugs, following the experimental conditions.

[3] = system: SH-SY5Y and D3 cell cultures; assay: Intracellular pH measurement (pHrodo); format: cell-based, human; details: MTZ 100 and 300 μM, AZT 30 and 100 μM; 3 and 12 hours; with and without peptide
Protocol: Cells were plated on 96-wells microplate fluorescence microtiter (ThermoFisher, Waltham, Mass., US). The day after, cells were treated with the different drugs and/or peptides. After this, intracellular pH measurement was performed by using the pHrodo red AM kit, following the indications provided by the manufacturer.

[4] = ATZ 10 μM added to the peptides

Compound | increase of freezing in contextual fear conditioning (TgSwDI mice) | ΔΨ after pre-aggregated Aβ [1] | ΔΨ after pre-aggregated Aβ (SH-SY5Y neuronal cells) | activity on mitochondrial CA (mitochondrial CA) | Aβ-induced increase in H2O2 production by isolated mitochondria ([2]; Example 1, Aβ with MTZ) | Aβ-induced H2O2 production [2] | H2O2 production, drug alone ([2]; MTZ alone, untreated cells) | apoptosis in response to Aβ (hCMEC/D3 cells (D3)) | intracellular pH values [3] | loss of ΔΨ [1, 4] | loss of ΔΨ (SH-SY5Y neuronal cells; [4])
CC(=O)/N=c1/sc(S(N)(=O)=O)nn1C [MTZ, methazolamide] | normalizing effect | rescue ΔΨ to values similar to those observed under control conditions | rescue ΔΨ to values similar to those observed under control conditions | high activity | completely reverted | completely reverted | did not have any effect | prevented | did not show any significant changes | – | –
CC(=O)Nc1nnc(S(N)(=O)=O)s1 [ATZ, acetazolamide] | normalizing effect | rescue ΔΨ to values similar to those observed under control conditions | rescue ΔΨ to values similar to those observed under control conditions | high activity | – | completely reverted | – | prevented | did not show any significant changes | prevent loss of ΔΨ | prevent loss of ΔΨ
